Assay results reported in PMC10648541, “Design, Synthesis, and Antiproliferative Activity of Selective Histone Deacetylases 6 Inhibitors Containing a Tetrahydropyridopyrimidine Scaffold” (Molecules, 2023).
Read-outs that look alike come from different tables or passages of the source.

Assays:
HL60 = test: Antiproliferative assay (Alamar blue, 72 h), HL60; assay type: cell-based; conditions: Homo sapiens, HL-60, HL60 cells, three independent experiments, SD < 10%, read-out: Antiproliferative effect IC50, HL60
HCT116 = test: Antiproliferative assay (Alamar blue, 72 h), HCT116; assay type: cell-based; conditions: Homo sapiens, HCT-116, HCT116 cells, three independent experiments, SD < 10%, read-out: Antiproliferative effect IC50, HCT116
RPMI-8226 = test: Antiproliferative assay (Alamar blue, 72 h), RPMI-8226; assay type: cell-based, human; conditions: RPMI-8226 cells, three independent experiments, SD < 10%, read-out: Antiproliferative effect IC50, RPMI-8226
Description: The cells were cultured in IMDM (Gibco) medium with 20% FBS (Lonsera), 100 U/mL penicillin, and 100 µg/mL streptomycin (Solarbio). All cells were maintained at 37 °C in a humidified atmosphere of 5% CO2 in air. Briefly, 100 µL cell suspension or completed medium was plated into a 96-well plate. Compounds were added and incubated for 72 h. Then, 22 µL Alamar blue solution (1 mM) was pipetted into each well of a 96-well plate, and the plate was incubated for an additional 5~6 h. The absorbance (OD) was read at 530/590 nm. Data were normalized to vehicle groups (DMSO) and represented as the means of three independent measurements with standard errors of <20%. The IC50 values were calculated using Prism 5.0.

HDAC1 = target: T1, HDAC1 (Homo sapiens, UniProt Q13547); test: In vitro HDAC enzyme assay (Reaction Biology Corporation), HDAC1; assay type: biochemical; conditions: Table 1; duplicate, SD < 15%
T1 construct: purchased Reaction Biology Corporation
T1 sequence (Q13547 whole entry): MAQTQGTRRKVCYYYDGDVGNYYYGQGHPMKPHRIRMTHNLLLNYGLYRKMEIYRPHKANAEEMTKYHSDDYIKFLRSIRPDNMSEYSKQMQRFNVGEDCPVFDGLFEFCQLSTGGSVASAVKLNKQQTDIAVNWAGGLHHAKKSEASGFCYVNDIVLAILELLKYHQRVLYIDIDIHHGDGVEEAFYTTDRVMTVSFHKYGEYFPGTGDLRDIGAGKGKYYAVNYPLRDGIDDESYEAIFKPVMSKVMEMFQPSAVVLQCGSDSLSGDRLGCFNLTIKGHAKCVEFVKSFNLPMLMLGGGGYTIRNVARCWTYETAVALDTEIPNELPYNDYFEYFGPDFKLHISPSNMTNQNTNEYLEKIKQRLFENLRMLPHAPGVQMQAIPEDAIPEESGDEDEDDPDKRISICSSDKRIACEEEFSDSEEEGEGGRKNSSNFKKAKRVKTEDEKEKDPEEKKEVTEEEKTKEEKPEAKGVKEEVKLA

HDAC6 = target: T2, HDAC6 (Homo sapiens, UniProt Q9UBN7); test: In vitro HDAC enzyme assay (Reaction Biology Corporation), HDAC6; assay type: biochemical; conditions: Table 1
T2 construct: purchased Reaction Biology Corporation
T2 sequence (Q9UBN7 1-1215): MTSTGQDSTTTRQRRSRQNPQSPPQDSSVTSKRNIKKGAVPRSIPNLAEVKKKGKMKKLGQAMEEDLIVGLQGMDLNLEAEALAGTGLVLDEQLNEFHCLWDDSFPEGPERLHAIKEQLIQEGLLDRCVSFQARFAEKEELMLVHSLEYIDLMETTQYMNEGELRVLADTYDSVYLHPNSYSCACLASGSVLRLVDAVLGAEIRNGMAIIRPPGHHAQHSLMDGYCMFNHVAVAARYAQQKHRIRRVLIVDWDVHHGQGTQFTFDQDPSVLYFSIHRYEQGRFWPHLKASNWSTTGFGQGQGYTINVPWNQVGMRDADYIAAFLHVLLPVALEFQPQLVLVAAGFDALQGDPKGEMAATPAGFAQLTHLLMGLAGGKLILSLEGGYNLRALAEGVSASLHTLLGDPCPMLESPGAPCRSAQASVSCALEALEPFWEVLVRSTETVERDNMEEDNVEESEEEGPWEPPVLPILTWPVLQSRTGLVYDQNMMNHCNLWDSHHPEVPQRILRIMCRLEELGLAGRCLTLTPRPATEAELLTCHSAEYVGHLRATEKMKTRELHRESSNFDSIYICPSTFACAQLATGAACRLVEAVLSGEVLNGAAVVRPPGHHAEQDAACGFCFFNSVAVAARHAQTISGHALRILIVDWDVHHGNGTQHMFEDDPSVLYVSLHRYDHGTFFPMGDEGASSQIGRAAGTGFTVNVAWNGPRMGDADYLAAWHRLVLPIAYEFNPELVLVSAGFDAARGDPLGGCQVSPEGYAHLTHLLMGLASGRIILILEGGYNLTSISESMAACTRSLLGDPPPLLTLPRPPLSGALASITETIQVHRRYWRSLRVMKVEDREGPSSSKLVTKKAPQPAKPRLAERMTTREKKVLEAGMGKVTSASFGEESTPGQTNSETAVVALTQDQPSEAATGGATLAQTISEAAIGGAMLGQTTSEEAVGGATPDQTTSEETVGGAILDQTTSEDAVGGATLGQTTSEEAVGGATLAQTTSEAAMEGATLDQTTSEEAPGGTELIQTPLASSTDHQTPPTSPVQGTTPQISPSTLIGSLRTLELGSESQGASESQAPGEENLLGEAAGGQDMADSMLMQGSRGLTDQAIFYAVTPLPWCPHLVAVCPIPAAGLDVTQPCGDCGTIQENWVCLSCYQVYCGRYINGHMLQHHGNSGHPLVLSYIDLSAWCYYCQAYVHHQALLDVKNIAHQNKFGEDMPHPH

[1] = system: acetylated histone 3 (H3); test: Western blot, acetylated histone 3 in RPMI-8226 cells; assay type: cell-based, human; conditions: 24 h, 10 μM, compared to the vehicle
Description: (§1) RPMI-8226 cells (1 × 10^6) were seeded overnight and incubated with compound 8f for 24 h on indicated concentrations. Cell extract was prepared by lysing cultured cells with a mammalian protein extraction reagent supplemented with EDTA-free protease inhibitor for 15 min. SDS-PAGE and immunoblot analysis were conducted as described. Antibodies for Ac-H3 (abcom, AB32129) and Ac-ɑ-tubulin (Cell Signaling, 2144) were used.

acetylated α-tubulin = test: Western blot, acetylated α-tubulin in RPMI-8226 cells; assay type: cell-based, human; conditions: 24 h, 10 μM, compared to the vehicle
Description: as §1

Row | SMILES | IC50 (HL60) [µM] | IC50 (HCT116) [µM] | IC50 (RPMI-8226; Homo sapiens) [µM] | melting point [°C] | further results
1 | O=C(CCCCCCNC(=O)c1cnc(N(c2ccccc2)c2ccccc2)nc1)NO [Compound 1, reference compound] | 4.1 | 6.5 | 1.7 | – | –
2 | O=C(CCCCCCC(=O)N1CCc2c(nc(-c3ccccc3)nc2-c2ccccc2)C1)NO [Compound 8a, 8-(2,4-Diphenyl-5,8-dihydropyrido [3,4-d]pyrimidin-7(6H)-yl)-N-hydroxy-8-oxooctanamide] | 12.5 | 23.4 | 16.3 | 115 to 117 | –
3 | O=C(CCCCCCC(=O)N1CCc2c(nc(-c3ccoc3)nc2-c2ccoc2)C1)NO [Compound 8d, 8-(2,4-Di(furan-3-yl)-5,8-dihydropyrido [3,4-d]pyrimidin-7(6H)-yl)-N-hydroxy-8-oxooctanamide] | – | – | – | 104 to 106 | –
4 | O=C(CCCCCCC(=O)N1CCc2c(nc(-c3ccsc3)nc2-c2ccsc2)C1)NO [Compound 8e, 8-(2,4-Di(thiophen-3-yl)-5,8-dihydropyrido [3,4-d]pyrimidin-7(6H)-yl)-N-hydroxy-8-oxooctanamide] | – | – | – | 123 to 124 | –
5 | O=C(CCCCCCC(=O)N1CCc2c(nc(-c3cccs3)nc2-c2cccs2)C1)NO [Compound 8g, 8-(2,4-Di(thiophen-2-yl)-5,8-dihydropyrido [3,4-d]pyrimidin-7(6H)-yl)-N-hydroxy-8-oxooctanamide] | – | – | – | 128 to 129 | –
6 | O=C(CCCCCCC(=O)Nc1ccccc1)NO [SAHA, reference compound] | – | – | – | – | levels of acetylated histone H3 [1]: increased levels of both acetylated α-tubulin and acetylated histone H3 significantly; levels of acetylated α-tubulin (acetylated α-tubulin): increased levels of both acetylated α-tubulin and acetylated histone H3 significantly; IC50 (RPMI-8226): 0.66 µM

Second part, led by results:

Row | IC50 (HL60) [µM] | IC50 (HCT116) [µM] | IC50 (RPMI-8226; Homo sapiens) [µM] | melting point [°C] | SMILES | further results
7 | – | – | – | 110 to 112 | Cc1ccc(-c2nc3c(c(-c4ccc(C)cc4)n2)CCN(C(=O)CCCCCCC(=O)NO)C3)cc1 [Compound 8b, 8-(2,4-di-p-tolyl-5,8-dihydropyrido [3,4-d]pyrimidin-7(6H)-yl)-N-hydroxy-8-oxooctanamide] | –
8 | 3.78 | 4.72 | 4.63 | 117 to 118 | COc1ccc(-c2nc3c(c(-c4ccc(OC)cc4)n2)CCN(C(=O)CCCCCCC(=O)NO)C3)cc1 [Compound 8c, 8-(2,4-Bis(4-methoxyphenyl)-5,8-dihydropyrido [3,4-d]pyrimidin-7(6H)-yl)-N-hydroxy-8-oxooctanamide] | IC50 (HDAC1): 0.472 µM
9 | – | – | – | 145 to 146 | O=C(CCCCCCC(=O)N1CCc2c(nc(-c3ccc(C(F)(F)F)cc3)nc2-c2ccc(C(F)(F)F)cc2)C1)NO [Compound 8h, 8-(2,4-Bis(4-(trifluoromethyl)phenyl)-5,8-dihydropyrido [3,4-d]pyrimidin-7(6H)-yl)-N-hydroxy-8-oxooctanamide] | Selectivity Index (HDAC6; HDAC6 against HDAC1): 26; IC50 (HDAC6; duplicate, SD < 15%): 0.0215 µM; IC50 (HDAC1): 0.551 µM
